Data on 79 compounds can be found in the METLIN SMRT retention time set (Domingo-Almenara et al. 2019).

This data set can be described thus: gradient 5% acetonitrile 3 min, to 50% in 2 min, to 85% in 15 min, held 3 min, 100 µL/min. To be noted: column: Zorbax Extend-C18 2.1 x 50 mm; eluents: water / acetonitrile, 0.1% formic acid. An outline of the steps: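 A Zorbax Extend-C18 column (2.1 × 50 mm, 1.8 μm) run at 100 μL/min with water and acetonitrile, both containing 0.1% formic acid, separated mixtures of ~100 pure standards. The HPLC was coupled to a quadrupole time-of-flight mass spectrometer operated in positive and negative ionization mode, with dead and dwell volumes of 40 μL and 900 μL. Each retention time was taken from a computationally picked adduct peak that was then manually inspected.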
Compound `CCCCn1c(=O)c2ccccc2n(Cc2nc(-c3ccc(Br)cc3)no2)c1=O` returned an RP-LC retention time of 1300 s.
To `Cc1ccc(-c2noc(C3CCCN3C(=O)C3CC(=O)N(c4cccc(Cl)c4)C3)n2)cc1` (centres undefined) belongs 1040 s; to `COCCNc1c(-c2ccc(C)cc2)nc2sc(C(=O)NC3CC3)c(C)n12`, 766 s; to `O=c1ccc(-c2ccc(Cl)cc2)nn1CCc1nc(-c2cccs2)no1`, 1000 s.
With `COC(=O)c1cccc(C(=O)Nc2ccccc2C)n1`, the RP-LC retention time is 869 s.
Consider `O=C(NC1CCN(c2cc(-c3cccnc3)[nH]n2)CC1)c1ccc2cc[nH]c2c1`, for which the RP-LC retention time came to 616 s.
As for `O=C(NCCCc1ccccc1)c1cccc2c1CCN2C(=O)C1CC1`, the RP-LC retention time turned out to be 902 s.
As for `CCOC(=O)c1c(S(=O)(=O)N2CCC(C(=O)Nc3ccc(C(C)C)cc3)CC2)c(C)n(C)c1C`, the RP-LC retention time came to 1020 s.
To `CC(NC(=O)C(=O)NCC1CCN(C(=O)NC(C)(C)C)CC1)c1ccccc1` (centres undefined) belongs 749 s; to `Cc1ccccc1S(=O)(=O)NC1CCN(c2ccc(=O)n(C)n2)C1` (centres undefined), 705 s; to `C#CCCNC(=O)c1ccc(C)c(C)c1`, 720 s.
`Cc1ccc(CNc2c(-c3ccc(C)c(C)c3)nc3ncccn23)cc1` yielded an RP-LC retention time of 834 s.
Consider `CC(C)NC(=O)c1ccc(OCC2CCN(C(=O)c3ccc(F)cc3Cl)CC2)cc1`, for which the RP-LC retention time was found to be 888 s.
In the case of `O=C(Nc1cc(F)ccc1F)N1CCCC1c1nncn1-c1ccccc1` (centres undefined), the RP-LC retention time was 717 s.
`Cc1nc(-c2noc(-c3ccccc3)n2)cn1CC(=O)N1CCN(c2ccccc2F)CC1` yielded an RP-LC retention time of 894 s.
To `O=C(Cc1csc(NC(=O)c2ccco2)n1)Nc1ccc2c(c1)OCCO2` belongs 670 s.
Regarding `Cc1nnc(-c2ccc3ccn(CC(=O)NC(C)(C)C)c3c2)o1`, the RP-LC retention time worked out at 718 s.
For `Cc1ccc(NS(=O)(=O)c2cc(-c3cc(C(F)(F)F)on3)sc2C)cc1`, the RP-LC retention time was found to be 1170 s.
Compound `COc1ccc(-c2nc3ncccn3c2NC2CCCCCC2)cc1OC` came in with an RP-LC retention time of 756 s.
To `Cc1nccn1Cc1nc(-c2ccc(F)cc2)no1` belongs 614 s; to `CN1CCC(NC(=O)C2CCN(c3nc4ccc(-c5cccs5)nc4s3)CC2)CC1`, 654 s.
`Cc1ccc(-n2nnnc2-c2cccnc2)cc1` came in with an RP-LC retention time of 649 s.
For `O=C(NCCCN1CCCC1)c1cccc(N2CCNC(c3ccccc3)C2)n1` (centres undefined), the RP-LC retention time was found to be 694 s.
Take `Cc1ccc(S(=O)(=O)N2CCC3(CC2)NCCN=C3NCc2ccccc2F)cc1C`: the RP-LC retention time stood at 750 s.
To `Cc1cc(C(=O)Nc2ccc(C)c(F)c2)n(CC(=O)Nc2ccc(F)cc2)n1` belongs 922 s.
Take `Cc1nc(-c2ccc(-c3noc(C(NS(=O)(=O)c4ccccc4)C(C)C)n3)cc2)cs1` (centres undefined): the RP-LC retention time turned out to be 1120 s.
In turn, `CCN1CCN(S(=O)(=O)c2cccc(-c3nnc(-c4ccc(C)cc4)o3)c2)CC1` yielded an RP-LC retention time of 682 s.
`C=Cc1ccc(Cn2cccc(S(=O)(=O)N3CCCC3)c2=O)cc1` displayed an RP-LC retention time of 886 s.
The compound `COc1ccc(CC(=O)NCC(=O)Nc2nc3ccccc3[nH]2)c(Cl)c1` showed an RP-LC retention time of 653 s.
To `Cc1nc(-c2cc(S(=O)(=O)Nc3ccc(F)c(F)c3)c(C)s2)sc1C` belongs 1100 s; to `Cc1ccc(-c2csc(-c3cccn3CC(=O)N3CCCC3)n2)cc1`, 1070 s; to `COc1ccc2c(c1)c(CC(=O)O)c(C)n2Cc1ccc(Cl)cc1`, 1060 s.
`CC(C)Cn1cc(S(=O)(=O)NCc2ccccc2F)c2cccnc21` displayed an RP-LC retention time of 932 s.
Next, `CC(C(=O)Nc1c(F)cccc1F)C1CCN(C(=O)Nc2ccc(Cl)cc2)CC1` (centres undefined): 865 s; `CC(=O)Nc1cccc(NC(=O)C2CC(=O)N(c3n[nH]c4cccc(F)c34)C2)c1` (centres undefined): 644 s.
Compound `Cc1cc(N2CCN(C(=O)Nc3cccc(C(F)(F)F)c3)CC2)nc(N2CCCC2)n1` returned an RP-LC retention time of 760 s.
Take `CCC1Oc2ccc(S(=O)(=O)N3CCC(C(=O)N(C)c4ccc(C)cc4)CC3)cc2NC1=O` (centres undefined): the RP-LC retention time was determined as 837 s.
For the compound `CN(CC1CCOC1)C(=O)Nc1cc(F)c(F)c(F)c1` (centres undefined), the RP-LC retention time came out at 764 s.
On to `COc1ccc(NC(=O)c2csc(-c3cn(C)c4ncccc34)n2)cc1`, for which the RP-LC retention time was determined as 923 s.
As to `Cc1ccc(-c2nc(-c3ccc4c(c3)oc(=O)n4C(C)C)no2)c(C)c1`, the RP-LC retention time came out at 761 s.
`Cc1cc(C2CCCN2C(=O)Cc2ccccc2Cl)no1` (centres undefined): the RP-LC retention time was 804 s.
Compound `Cc1ccc(F)cc1NC(=O)CN1CCC(c2nc(-c3cccs3)no2)CC1` had an RP-LC retention time of 725 s.
`O=C(Cn1nc2c3cc(-c4ccc(Cl)cc4)nn3ccn2c1=O)NC1CCCCC1` had an RP-LC retention time of 906 s.
Next, `Cc1nc2cc(NC(=O)c3ccc(N4CCOCC4)nn3)ccc2s1`: 676 s; `O=C(O)c1cccc2c1CCN2C(=O)Nc1ccc(F)cc1`: 782 s.
For `CCCN1CCN(c2ncc(C(=O)Nc3ccc(OCC)cc3)c(N)n2)CC1`, the RP-LC retention time stood at 617 s.
In the case of `Cc1ccc(CN2N=C(C(=O)N3CCOCC3)S(=O)(=O)c3ccc(Cl)cc32)cc1`, the RP-LC retention time is 896 s.
For the compound `Cc1ccc(-c2csc(NC(=O)COc3ccc(Cl)cc3C)n2)cc1`, the RP-LC retention time stood at 1350 s.
`CCCNC(=O)C1CCN(c2ccc(SCC(=O)NCc3ccccc3Cl)nn2)CC1` gave an RP-LC retention time of 644 s.
Next, `COc1cn(CC(=O)Nc2ccc(OC(F)(F)F)cc2)c(CO)cc1=O`: 618 s.
Turning to `CCC1Oc2ccc(S(=O)(=O)N3CCC(C(=O)Nc4ccc(Cl)cc4)CC3)cc2NC1=O` (centres undefined), the RP-LC retention time was 950 s.
With `COc1cc(OC)cc(-c2nnc(-c3ccccc3Cl)o2)c1`, the RP-LC retention time worked out at 1070 s.
Turning to `COc1ccc2c(c1)OC1(C)CC2C(S(=O)(=O)c2ccc(C(C)C)cc2)C(=O)N1C` (centres undefined), the RP-LC retention time amounted to 1120 s.
In turn, `COc1cccc(N2CCCn3c2nc2c3c(=O)n(Cc3c(F)cccc3Cl)c(=O)n2C)c1` gave an RP-LC retention time of 966 s.
In turn, `Cc1cccc(C)c1Nc1c(-c2ccc(N3CCOCC3)cc2)nc2cnc(Br)cn12` showed an RP-LC retention time of 1100 s.
As to `CCCn1cc(CCNC(=O)Nc2cccc(C)c2C)c2cccnc21`, the RP-LC retention time turned out to be 785 s.
As to `Cc1cc(Cl)ccc1OCc1nc(-c2ccc(NS(C)(=O)=O)cc2)no1`, the RP-LC retention time turned out to be 1060 s.
Next, `NC(=O)c1ccccc1NC(=O)Cc1cn(Cc2ccccc2)c2ccccc12`: 853 s; `COc1cccc(CNC(=O)Cn2cnc3onc(C)c3c2=O)c1`: 708 s; `CCc1nc2cc(-c3noc(C4(c5ccccc5)CC4)n3)ccc2o1`: 1220 s.
Next, `Cc1ccc(C(=O)N2CCCC(c3nnc(-c4ccccc4)o3)C2)s1` (centres undefined): 861 s; `CCN1C(=O)C2(CCN(S(=O)(=O)c3ccc4c(c3)CCC4)CC2)c2ccccc21`: 1170 s.
The compound `CCC(C)C(NC(=O)c1cccc(F)c1)C(=O)Nc1nc2ccccc2[nH]1` (centres undefined) had an RP-LC retention time of 748 s.
The compound `CC1(C(=O)NCc2ccc(F)cc2)CCCN(C(=O)Nc2ccc(F)cc2)C1` (centres undefined) yielded an RP-LC retention time of 887 s.
`O=C1C2N=NN(Cc3nc(-c4ccccc4Br)no3)C2C(=O)N1c1ccc2c(c1)CCC2` (centres undefined) gave an RP-LC retention time of 1060 s.
As for `CCCn1cc(C(=O)NCCC(C)C)c2nn(-c3ccccc3)c(=O)c-2c1`, the RP-LC retention time was determined as 968 s.
Next, `Cc1c(C2CCN(C(=O)NCc3ccccc3)CC2)noc1N`: 639 s; `O=C(Cc1c[nH]c2ccccc12)N1CC(n2cc(COCC3CC3)nn2)C1`: 704 s.
In turn, `N#Cc1cccc(NS(=O)(=O)c2cccc(-c3nc(-c4ccccc4)no3)c2)c1` came in with an RP-LC retention time of 1080 s.
In turn, `CC1CCc2[nH]nc(C(=O)NC3CCCC3)c2C1` (centres undefined) gave an RP-LC retention time of 806 s.
Consider `COc1ccc(N2CCN(c3cc(SCC(=O)Nc4cc(C)cc(C)c4)ncn3)CC2)cc1`, for which the RP-LC retention time came to 1060 s.
For `CCC(C(=O)Nc1cc(-c2nc3ccccc3[nH]2)ccc1C)c1ccccc1` (centres undefined), the RP-LC retention time worked out at 755 s.
Compound `O=C(CN1CCC2(CC1)N=C(c1cccc(F)c1)C(=O)N2)Nc1ccc(Br)cc1F` returned an RP-LC retention time of 711 s.
To `COCCN1C(=O)c2ccccc2C(C(=O)Nc2ccc3c(c2)OCO3)C1c1ccc(F)cc1` (centres undefined) belongs 875 s; to `O=C(c1nc(C2CC2)nc2c1OCCO2)N1CCCC1c1cccnc1` (centres undefined), 642 s.
Consider `O=C(CN1C(=O)COc2ccccc21)N1CCN(c2ccc(-c3noc(C4CCC4)n3)cc2)CC1`, for which the RP-LC retention time stood at 1000 s.
Compound `NC(=O)c1nnsc1-c1ccc(-c2snnc2C(N)=O)cc1` came in with an RP-LC retention time of 694 s.
With `CCN(CC)C(=O)c1ccc2c(c1)N(CC(=O)NC1CCCCC1)C(=O)CO2`, the RP-LC retention time was found to be 724 s.
Next, `Cc1csc(NC(=O)C2CCN(S(=O)(=O)c3cc(-c4noc(C)n4)ccc3Cl)CC2)n1`: 899 s.
